Laboratory results as given in US11452781B2, “Method of preventing and treating type 1 diabetes, allograft rejection and lung fibrosis (by targeting the ATP/P2X7R axis)” (CHILDREN'S MEDICAL CENTER CORPORATION, priority 2013, dated 2022).
Entries after “also recorded” stand apart in the source; their conditions may differ.

Experiments:
[1] = test system: splenocytes of islet-transplanted mice; experiment: Immune profiling of islet-transplanted mice (ELISPOT, flow cytometry, serum cytokines); format: in vivo, mouse; conditions: day 14
Protocol: The effect of oATP treatment on the immune system of transplanted mice was tested. Splenocytes were collected in untreated or oATP-treated mice at day 14 after transplantation and challenged ex vivo in an ELISPOT assay with BALB/c irradiated splenocytes.
Immune profiling of islet-transplanted oATP-treated and untreated mice was performed at day 14 after transplantation.

naïve CD4+ T-cells = experiment: ELISPOT, naïve CD4+ T cells stimulated with anti-CD3-Ig and anti-CD28-Ig; format: cell-based, mouse
Protocol: The effect of P2X7R targeting was tested by treatment with oATP during T-cell activation. […] Similarly, in a T-cell proliferation assay, CFSE-labeled naïve CD4^+ T-cells were stimulated for 4 days with 0.5 μg/ml anti-CD3-Ig and anti-CD28-Ig; treatment with 100 μM oATP diminished CD4^+ T-cell proliferation (FIG. 5B, right panel) compared to controls (FIG. 5B, left panel).
(§1) To address the mechanisms underlying P2X7R targeting mediated inhibition of cardiac transplant rejection, the inventors analyzed the effect of P2X7R targeting on T-cell activation and Th1/Th17 differentiation in vitro. […] The effect of in vitro P2X7R targeting with oATP during CD4+ T-cell activation was tested. […] Second, in a T-cell proliferation assay, carboxyfluorescein diacetate succinimidyl ester-labeled naïve CD4+ T cells were stimulated for 96 hours with 0.5 μg/mL anti-CD3-Ig and anti-CD28-Ig, and treatment with 100 μM oATP diminished CD4+ T cell proliferation in comparison with controls. […] The inventors next tested the effect of in vitro P2X7R targeting during a Th1/Th17 generation and differentiation assay. […] P2X7R targeting with oATP inhibited Th0 conversion into both Th1 and Th17, as assessed by the percentage of IFN-γ+ and IL-17+ cells, respectively. The inventors show, therefore, that P2X7R targeting through oATP suppresses activation, proliferation, and Th1/Th17 differentiation of CD4+ T cells. The inventors then further investigated the role of P2X7R on T-cell activation and Th1/Th17 differentiation by genetic upregulation of P2X7R. P2X7R cDNA was transduced by using a pMY-IRES-GFP retroviral vector into CD4+ T cells (pmY-P2X7R CD4+ T cells), and upregulation of P2X7R expression was confirmed by Western blot. pmY-P2X7R CD4+ T cells were then challenged with anti-CD3-Ig/anti-CD28-Ig stimulation in an ELISPOT assay. […] In a Th1/Th17 generation assay, pmY-P2X7R CD4+ T cells seemed to display increased differentiation capacity in comparison with pmY-mock CD4+ T cells, as assessed by T-bet and ROR-γ expression.
Several key components of T-cell receptor signaling involved in the alloimmune response were examined, and the phosphorylation kinetics following in vitro anti-CD3-Ig/anti-CD28-Ig-mediated CD4+ T-cell activation was evaluated by using the Luminex assay. […] The inventors first confirmed that Colivelin (Col) was able to restore the activation-induced phosphorylation of STAT3 in a dose-dependent manner in oATP-treated CD4+ T cells by Western blotting. […] The effect of oATP and Colivelin on STAT3 phosphorylation and T-cell function was also evaluated following cardiac transplantation.

naïve Th0 cells = experiment: Th1/Th17 generation and differentiation assay; format: cell-based, mouse; conditions: 100 μM oATP
Protocol: Naïve Th0 cells were differentiated into Th1 or Th17 cells, and IFN-γ^+ and IL-17^+ cells were quantified by flow cytometry. Addition of 100 μM oATP inhibited the conversion of naïve Th0 cells into Th1 (FIGS. 6A-6B) and Th17 cells (FIGS. 6C-6D).
as §1, with “respectively.” for “respectively. The inventors show, therefore, that P2X7R targeting through oATP suppresses activation, proliferation, and Th1/Th17 differentiation of CD4+ T cells. The inventors then further investigated the role of P2X7R on T-cell activation and Th1/Th17 differentiation by genetic upregulation of P2X7R. P2X7R cDNA was transduced by using a pMY-IRES-GFP retroviral vector into CD4+ T cells (pmY-P2X7R CD4+ T cells), and upregulation of P2X7R expression was confirmed by Western blot. pmY-P2X7R CD4+ T cells were then challenged with anti-CD3-Ig/anti-CD28-Ig stimulation in an ELISPOT assay.”

C57BL/6 splenocytes = experiment: In vitro alloimmune ELISPOT, C57BL/6 responder splenocytes vs irradiated BALB/c splenocytes; format: cell-based, mouse
Description: The effect of increasing doses of oATP on Th1/Th17 cytokine levels was next tested. A dose-dependent response was evident, in which oATP reduced the number of cells producing Th1 cytokines (IFN-γ and IL-2) and Th17 cytokines (IL-6 and IL-17). Because it has been reported that oATP may affect other P2XRs, the inventors made use of the availability of the selective P2X1R inhibitor NF 449 and of the selective P2X3R inhibitor NF 110. C57BL/6 splenocytes were stimulated with irradiated BALB/c splenocytes, and IFN-γ production was evaluated in the presence of these inhibitors.

[2] = test system: P2X7R−/− mice transplanted with BALB/c hearts; experiment: Cardiac transplantation into P2X7R-/- mice; format: in vivo, mouse; conditions: P2X7R−/− recipients
Description: oATP has been proposed to exert secondary immunomodulatory mechanisms, primarily related to the inhibition of the remaining P2XsR. To verify that the effect on the prevention of cardiac transplant rejection was predominantly due to P2X7R inhibition, the P2X7R−/− C57BL/6 mouse model was used. BALB/c hearts were transplanted into P2X7R−/− mice, and cardiac transplant survival was compared with that of wild-type recipients.

[3] = test system: C57BL/6 mice transplanted with bm12 hearts; experiment: Chronic cardiac transplant rejection, bm12 donors to C57BL/6 recipients; format: in vivo, mouse
Protocol: To evaluate the importance of P2X7R signaling and targeting in a clinically relevant setting, the effect of oATP treatment in a model of cardiac transplant chronic rejection (bm12 donors to C57BL/6 recipients) was tested. […] Cardiac allograft pathology was assessed 40 days after transplantation of bm12 hearts into C57BL/6 mice.

mouse CD8 T cells = experiment: Isolated CD8 T cells stimulated with anti-CD3, TNF-α, IFN-γ and granzyme B expression; format: cell-based; conditions: anti-CD3 10 μg/ml

## periodate-oxidized ATP [oATP]
[1]
  Th17 cells: reduced; also recorded: Slight reductions
  number of cells producing IL-4: no effect
  percentages of CD8+ T effector cells: Slight reductions
  percentages of peripheral CD4+ T effector cells: No significant changes
  percentages of regulatory T-cells: No differences
  serum IL-6: reduced
naïve CD4+ T-cells; 100 μM oATP, 24 hours
  number of IFN-γ-producing CD4+ T-cells: significantly reduced; also recorded: suppressed
naïve CD4+ T-cells; oATP present during stimulation
  expression levels of the P2XsR: not influenced
naïve Th0 cells
  conversion of naïve Th0 cells into Th1 (IFN-γ+ cells): inhibited
  conversion of naïve Th0 cells into Th17 (IL-17+ cells): inhibited
C57BL/6 splenocytes; increasing concentrations of oATP
  IL-4 production: dose-dependent increase
C57BL/6 splenocytes; increasing doses, dose-dependent
  number of cells producing Th1 (IFN-γ, IL-2) and Th17 (IL-6, IL-17) cytokines: reduced
[2]
  ability to prolong cardiac transplant survival: severely altered
[3]; 40 days after transplantation
  cardiac allograft pathology (infiltration, coronaropathy): only mild cellular infiltration and the absence of coronaropathy
[3]; mouse, in vivo
  IFN-γ-producing cells (ELISPOT): reduced number
  IL-4-producing cells (ELISPOT): increased number
Mouse CD8 T cells
  expression of TNF-α, IFN-γ and granzyme B: reduction; also recorded: impaired activation
